Where two headings read alike, the source gives them in different places.
Columns and labels:
[1] = system: wild-type HIV-1; conditions: read-out: IC50 (50% inhibitory concentration), MT-4 cells, cited from earlier work
[2] = system: AZT-resistant strain derived from wild-type HIV-1; conditions: read-out: IC50 (50% inhibitory concentration); second passage of the AZT-resistant progeny, MT-4 cells; cited from earlier work
[3] = target: HIV-1 protease, wild type, expressed as part of truncated HIV-1 polyprotein (Human immunodeficiency virus type 1 group M subtype B, UniProt P04585); type: cell-based
Description: Plasmid pART-2 was digested with Bgl II and Eco RI to obtain a nucleotide sequence coding for a portion of the HIV-1 polyprotein (i.e., the HIV-1 protease protein, the HIV-1 reverse transcriptase protein and a portion of the HIV-1 integrase protein). The isolated 2.3 kb fragment was then inserted into the pTrcHisC plasmid (obtained from Invitrogen, San Diego, Calif.), which had previously been digested with the same restriction enzymes, to yield the plasmid pL124.23. The pL124.23 plasmid contains upstream sequences coding for a series of six histidine residues fused to a gene 10 segment, all of which are in frame with the inserted fragment. An enterokinase cleavage recognition site is also located between gene 10 and the truncated polyprotein. The inserted sequences, as well as the described upstream sequences are all under control of a T7 promoter. The T7 polymerase in the host cell (Top 10, Invitrogen) is inducible with IPTG.

Compound | IC50 ([1]; fourth passage of the wild-type progeny) [µM] | IC50 ([1]; passage 6 virus, tested at higher compound concentrations) [µM] | IC50 [2] [µM] | processing of the polyprotein by HIV protease [3]
Nc1nc(=O)n([C@@H]2CS[C@H](CO)O2)cc1F [FTC] | > 50 | > 250 | > 50 | –
CC(C)(C)NC(=O)[C@@H]1CN(Cc2cccnc2)CCN1C[C@@H](O)C[C@@H](Cc1ccccc1)C(=O)N[C@H]1c2ccccc2C[C@H]1O [L-735,524] | – | – | – | did not allow processing of the polyprotein
